Laboratory results from article PMC3404012, “N-Terminally Glutamate-Substituted Analogue of Gramicidin A as Protonophore and Selective Mitochondrial Uncoupler” (PLoS ONE, 2012).

What was measured:
[1] = test system: rat liver mitochondria (inner mitochondrial membrane potential); test: Mitochondrial membrane potential measured by safranine O fluorescence; conditions: for series of the uncoupling potency (relative drop in membrane potential, concentration dependence): isolated rat liver mitochondria, measured at 300 s after peptide addition, safranine O; for decrease of mitochondrial membrane potential: isolated rat liver mitochondria 0.4 mg/ml protein, 5 mM succinate + 1 µM rotenone, 5 nM (about 10 nanogram/ml) peptide, safranine O 10 µM, pH 7.4
Protocol: To assess the effect of gramicidin derivatives on the mitochondrial membrane potential, we assayed the latter with the potential-dependent dye safranine O. The fluorescence of this dye (at a high concentration) is known to drop with increasing the mitochondrial membrane potential and rise upon the addition of protonophores [42], [47].
Control, no other additions. gA, [Glu1]gA, [Glu3]gA, [Lys1]gA, and [Lys3]gA show traces after the addition of 5 nM (i.e. about 10 nanogram/ml) of a corresponding peptide at t = 0 s. Trace “excess [Glu1]gA” was measured with 1 µg/ml peptide. Panel B. Dose dependence of the effect of [Glu1]gA on mitochondrial membrane potential.
Experiments were performed on outbred white male rats (180–200 g) fed ad libitum. […] Rat liver mitochondria were isolated by differential centrifugation [60] in a medium containing 250 mM sucrose, 10 mM MOPS, 1 mM EGTA, and bovine serum albumin (0.1 mg/ml), pH 7.4. The final washing was preformed in the medium of the same composition. Protein concentration was determined using bicinchoninic acid as described in [61].
Safranine O (10 µM) was used as a membrane potential probe [42]. Fluorescence intensity at 580 nm (excitation at 520 nm) was measured with a Panorama Fluorat 02 spectrofluorimeter (Lumex, Russia). The medium for measurements contained 300 mM sucrose, 20 mM MOPS, 0.5 mM EDTA, 0.5 mg/ml BSA, pH 7.4. Mitochondrial protein concentration was 0.4 mg/ml.

[2] = Single-channel recordings on planar bilayer lipid membrane; conditions: DPhPC/decane BLM, 100 mM HCl; for single-channel conductance: from current histograms
Protocol: Proton channels formed by gA can be observed by measuring electric current across a planar bilayer lipid membrane (BLM), if the experiments are performed in the acidic pH range [19], [20], [26], [50]. Figure 6 presents typical recordings of fluctuations of transmembrane current induced by gA and [Glu1]gA (panels A and D of Fig. 6) which were obtained under the same conditions. The single-channel conductance of [Glu1]gA (150 pS) was close to that of gA (140 pS) as judged from the current histograms (panels B and E), while the single-channel lifetime of the analogue (about 16 ms as estimated from the exponential fit to open channel duration histogram, panel F of Fig. 6) was much shorter than that of gA (116 ms, panel C).
Figure 6 Single-channel recordings (A, D) and the corresponding current histograms (B, E) of gramicidin A ([…], A, B, and C) and [Glu1]gA (2 nanogram/ml, D, E, and F) at a voltage of 100 mV applied to the DPhPC/decane membrane. The solution was 100 mM HCl. (C, F) Open state duration histograms fitted by a single exponential with a time constant of 116 ms (C) and 16 ms (F). The records were filtered at 100 Hz (A, B, and C) or 1000 Hz (D, E, and F).
(§1) Planar bilayer lipid membranes (BLM) were formed from a 2% solution of diphytanoylphosphatidylcholine (DPhPC) (Avanti Polar Lipids, Alabaster, AL) in n-decane on a hole in a Teflon partition (0.5-mm diameter) separating two compartments of a cell containing aqueous buffer solutions [64].The electric current (I) was recorded under voltage-clamp conditions. Voltage was applied to BLMs with Ag-AgCl electrodes placed directly into the cell. The current measured by means of a patch-clamp amplifier (Warner Instruments, Hamden, CT, model BC-525C) was digitized using an NI-DAQmx (National Instruments, Austin, TX) and analyzed with a personal computer with the use of WinWCP Strathclyde Electrophysiology Software designed by J. Dempster (University of Strathclyde, UK).

[3] = test system: rat kidney cell culture (renal tubular epithelium cells); format: cell-based
Protocol: (§2) In subsequent series of experiments, the uncoupling action of [Glu1]gA was tested in rat kidney cell culture loaded with the potential sensitive dye tetramethylrhodamine ethyl ester (TMRE). […] By contrast, the parent gA depolarized mitochondria in cells at substantially higher concentrations starting from 0.1 mg/ml (Fig. 2C). […] In particular, treatment with 50 µg/ml gA caused about 80% cell death, while [Glu1]gA provoked only about 15% cell death. […] The increased effective concentrations of the [Glu1]gA in cell culture with respect to those with isolated mitochondria (Fig. 1) could be attributed to poor peptide permeation through plasma membrane.
Confocal images of cultured renal cells loaded with TMRE in control (A) and after treatment with 0.01 mg/ml [Glu1]gA (B). Diagram (C) presents the mean intensity of TMRE fluorescence through 10 confocal images for each [Glu1]gA (solid bars) or gA (hatched bars) concentration.
Kidneys were excised aseptically from 3–7 day old rats, then homogenized and placed in balanced Hanks solution at pH 7.4. After several washes the dispensed tissue was placed in 0.1% collagenase and incubated for 20–30 min at 37°C. Large pieces were removed, and cells were sedimented by gentle centrifugation (50 g) for 3 min. The pellet was resuspended in DMEM/F-12 1:1 containing 10% fetal calf serum (FCS) and seeded in culture plates and glass-bottom dishes. Cells were cultivated in a CO2 (5%) incubator for 1–2 days before the experiments. The gA or [Glu1]gA solution was added to the cultured epithelial cells to appropriate concentration and incubated for 10 min at 37°C in DMEM/F-12 medium containing 10 mM Hepes-NaOH. Next, cells were incubated with 100 nM TMRE (Invitrogen, USA) or 1 µM Lysotracker Green (Invitrogen, USA) for 30 min followed by washing in DMEM/F-12. Then renal tubular epithelial cells were imaged with an LSM510 inverted confocal microscope (Carl Zeiss Inc., Jena, Germany). Analysis of fluorochrome incorporation was performed in glass-bottom dishes (MatTek Corp., USA) with excitation at 488 and 543 nm and emission collected at 510–530 and 560–590 nm, for Lysotracker and TMRE, correspondingly. To minimize the contribution of photo-induced mitochondria/cell damage to the relative fluorescence intensities, image analysis was performed on the average of the first four scans only. Images were processed using ImageJ software (NIH, Bethesda, MD, USA).

[4] = Induction of electrical current across planar BLM with and without liposomes; conditions: for effect of liposomes on induction of BLM current: liposomes 1 µg/ml DPhPC, peptide and liposomes at one side, gA 2 nanogram/ml, [Glu1]gA 200 nanogram/ml, 100 mM KCl, 10 mM Tris, 10 mM MES, pH 7.0, 50 mV
From the text: The difference in efficacy of gA and [Glu1]gA described here in a variety of systems could be associated with different abilities of the peptides to redistribute between membrane structures and/or their diverse permeability through membranes. To cause a reduction of an electrical potential difference across the inner mitochondrial membrane, peptide molecules must penetrate through the outer membrane in the case of isolated mitochondria, and additionally through the plasma membrane in the case of cells. While encountering with a series of membrane structures, e.g. endosomes, on their way from the plasma to the mitochondrial membrane, peptides may undergo numerous cycles of membrane binding and desorption. To study such a process in a model system, we measured the effect of liposome addition on the time course of the induction of electrical current across a planar BLM by gA and [Glu1]gA. In these experiments we added liposomes and peptides at one side of BLM in order to mimic the addition of the peptides to mitochondria and cells.
Figure 7 Effect of liposomes (1 µg/ml DPhPC) on the induction of electrical current on planar lipid bilayer by gA (2 nanogram/ml, panel A) and [Glu1]gA (200 nanogram/ml, panel B). The peptides and liposomes were added at one side of the membrane. The solution was 100 mM KCl, 10 mM Tris, 10 mM MES, pH = 7.0, BLM voltage was 50 mV.
as §1, with “Voltage was applied to BLMs with Ag-AgCl electrodes placed directly into the cell.” left out

[5] = test system: cultured renal tubular cells; test: MTT cell viability test; format: cell-based; conditions: 24 h
Protocol: as §2
Figure 3 Viability of cultured renal cells according to the MTT test after 24 h treatment with appropriate concentration of [Glu1]gA or gA in culture medium without serum. Experiments were performed 2 times in which 10 wells per each concentration were analyzed.
Cell viability was evaluated by a widely used methyl thiazol tetrazolium (MTT) test. […] Then the dye solution was removed, 50 µl DMSO per well was added and absorbance at 540 nm was measured. Experiments were performed twice in which 10 wells per each concentration were analyzed.

[6] = test system: lysosomes of rat kidney cells; test: Lysosome integrity and pH gradient by Lysotracker Green; format: cell-based; conditions: 0.1 mg/ml peptide, 1 µM Lysotracker Green
Protocol: In further experiments, we tested the interaction of [Glu1]gA with lysosomes of rat kidney cells by using the dye Lysotracker Green known to accumulate in highly acidic interior of lysosomes. […] Thus, [Glu1]gA appeared to interact specifically with mitochondrial membranes leading to their partial depolarization.
Figure 4 Micrographs of rat kidney cell culture loaded with Lysotracker Green in the absence (A), and in the presence of 0.1 mg/ml (B) of [Glu1]gA.
Kidneys were excised aseptically from 3–7 day old rats, then homogenized and placed in balanced Hanks solution at pH 7.4. After several washes the dispensed tissue was placed in 0.1% collagenase and incubated for 20–30 min at 37°C. Large pieces were removed, and cells were sedimented by gentle centrifugation (50 g) for 3 min. The pellet was resuspended in DMEM/F-12 1:1 containing 10% fetal calf serum (FCS) and seeded in culture plates and glass-bottom dishes. Cells were cultivated in a CO2 (5%) incubator for 1–2 days before the experiments. The gA or [Glu1]gA solution was added to the cultured epithelial cells to appropriate concentration and incubated for 10 min at 37°C in DMEM/F-12 medium containing 10 mM Hepes-NaOH. […] To minimize the contribution of photo-induced mitochondria/cell damage to the relative fluorescence intensities, image analysis was performed on the average of the first four scans only. […]

rat liver mitochondria = test: Respiration of isolated mitochondria (Clark-type oxygen electrode); conditions: 25°C, pH 7.4, 100 nM = 200 nanogram/ml, data not shown
[7] = Dissipation of pH gradient in pyranine-loaded liposomes; conditions: 2 µg/ml peptide
Protocol: Figure 5 Dissipation of the pH gradient on membranes of pyranine-loaded liposomes by gA and [Glu1]gA (both 2 µg/ml). Inner liposomal pH was estimated from pyranine fluorescence intensity measured at 505 nm upon excitation at 455 nm. Nigericin (1 µM) was added at 400–420 s to equilibrate the pH. Control, a record without peptides.
The lumenal pH of the liposomes was assayed with pyranine as described in [11] by a slightly modified procedure of [63]. To prepare pyranine-loaded liposomes, lipids (5 mg egg yolk phosphatidylcholine and 1 mg cholesterol) in a chloroform suspension were dried in a round-bottom flask under a stream of nitrogen. The lipids were then resuspended in buffer (100 mM KCl, 20 mM MES, 20 mM MOPS, 20 mM Tricine titrated with KOH to pH 6.0) containing 0.5 mM pyranine. The suspension was vortexed and then freeze-thawed three times. Unilamellar liposomes were prepared by extrusion through 0.1-µm-pore size Nucleopore polycarbonate membranes using an Avanti Mini-Extruder. The unbound pyranine was then removed by passage through a Sephadex G-50 coarse column equilibrated with the same buffer solution. […] The pH was estimated from the intensities of fluorescence measured at 505 nm upon excitation at 455 nm, as monitored with the Panorama Fluorat 02 spectrofluorimeter. At the end of each recording, 1 µM nigericin was added to dissipate the remaining pH gradient.

Question: For “HCO-KGALAVVVWLWLWLW-NH(CH2)2OH [[Lys1]gA]”, which “series of the uncoupling potency (relative drop in membrane potential, concentration dependence)” value [1] is on record?
Answer: [Glu1]gA > = gA > [Glu3]gA > [Lys3]gA > [Lys1]gA

Question: For gramicidin A [gA, reference compound], which “decrease of mitochondrial membrane potential” value [1] is on record?
Answer: most efficient in decreasing the mitochondrial membrane potential

Question: And the “series of the uncoupling potency (relative drop in membrane potential, concentration dependence)” value [1]?
Answer: [Glu1]gA > = gA > [Glu3]gA > [Lys3]gA > [Lys1]gA

Question: What about the “single-channel lifetime (open state duration, single-exponential time constant)” value ([2]; 100 mV) of the same substance?
Answer: 116 ms

Question: And the single-channel conductance ([2]; 100 mV)?
Answer: 140 pS

Question: What about the “concentration from which mitochondria in cells are depolarized” value ([3]; rat kidney cell culture, TMRE) of the same substance?
Answer: ≥ 0.1 mg/mL

Question: What about the “effect of liposomes on induction of BLM current” value [4] of the same substance?
Answer: somewhat slower in the presence of liposomes

Question: And the “cell death (MTT)” value ([5]; 50 µg/ml peptide, DMEM/F12 without serum, 2 experiments, 10 wells per concentration)?
Answer: about 80%

Question: What about the “concentration limit to which certain toxicity is seen (MTT)” value ([5]; medium without serum) of the same substance?
Answer: ≥ 100 ng/mL

Question: Which “series of the uncoupling potency (relative drop in membrane potential, concentration dependence)” value [1] does the source give for “HCO-VGELAVVVWLWLWLW-NH(CH2)2OH [[Glu3]gA]” here?
Answer: [Glu1]gA > = gA > [Glu3]gA > [Lys3]gA > [Lys1]gA

Question: For “HCO-VGKLAVVVWLWLWLW-NH(CH2)2OH [[Lys3]gA]”, which “series of the uncoupling potency (relative drop in membrane potential, concentration dependence)” value [1] is on record?
Answer: [Glu1]gA > = gA > [Glu3]gA > [Lys3]gA > [Lys1]gA

Question: Which “lysosome integrity and pH gradient across lysosomal membranes (Lysotracker fluorescence intensity)” value [6] does the source give for “HCO-EGALAVVVWLWLWLW-NH(CH2)2OH [[Glu1]gA]” here?
Answer: No change

Question: And the “decrease of mitochondrial membrane potential” value [1]?
Answer: most efficient in decreasing the mitochondrial membrane potential

Question: And the “series of the uncoupling potency (relative drop in membrane potential, concentration dependence)” value [1]?
Answer: [Glu1]gA > = gA > [Glu3]gA > [Lys3]gA > [Lys1]gA

Question: What about the “concentration stimulating mitochondrial respiration up to the level of fully uncoupled respiration” value (rat liver mitochondria) of the same substance?
Answer: higher than 100 nM

Question: What about the single-channel conductance ([2]; 100 mV) of the same substance?
Answer: 150 pS

Question: And the “concentration required to observe single channels, relative to gA” value ([2]; symmetrical addition)?
Answer: much higher (approx. by two orders of magnitude)

Question: And the “effective concentrations in cells relative to isolated mitochondria” value ([3]; cells versus isolated mitochondria)?
Answer: higher in cells than in mitochondria by three orders of magnitude

Question: What about the “depolarizing concentrations in cell culture relative to gA” value ([3]; mitochondria in cell culture) of the same substance?
Answer: by an order of magnitude lower than those of gA

Question: And the “decrease in the mitochondrial membrane potential (TMRE fluorescence)” value ([3]; rat kidney cell culture, 10 µg/ml (about 5 µM) peptide, 10 min at 37°C, then 100 nM TMRE 30 min)?
Answer: more than a two-fold decrease

Question: And the “depolarization of mitochondria in cells” value ([3]; rat kidney cells, 0.1 mg/ml peptide)?
Answer: maximal depolarization of mitochondria

Question: What about the “rate of pH gradient dissipation (enhancement of liposome-entrapped pyranine fluorescence)” value [7] of the same substance?
Answer: slower than that provoked by the parent peptide gA

Question: What about the “effect of liposomes on induction of BLM current” value [4] of the same substance?
Answer: accelerated many fold the induction of the current

Question: What about the “concentration required to induce current similar to that of gA, one-sided addition” value ([4]; planar BLM, peptide added from one side of the membrane) of the same substance?
Answer: about two orders of magnitude higher
